The source made the active and inactive calls. The calls are words filed in the database; no cut-off is given here.
What was measured:
Cucumis sativus [1] = experiment: Inhibition of fatty acid synthesis in Cucumis sativus (cucumber) using [14C]malonate assessed as inhibition of [14C]-labeled 16C fatty acid production at 30 uM after 3 hr by liquid scintillation counting; assay type: functional, organism-based
Cucumis sativus [2] = experiment: Inhibition of fatty acid synthesis in Cucumis sativus (cucumber) using [14C]malonate assessed as inhibition of [14C]-labeled 18C fatty acid production at 30 uM after 3 hr by liquid scintillation counting; assay type: functional, organism-based
Hordeum vulgare [3] = experiment: Inhibition of fatty acid synthesis in Hordeum vulgare (barley) using [14C]acetate assessed as [14C]-labeled 22C fatty acid level at 30 uM after 3 hr by liquid scintillation counting (reference value: 5.5 +/- 0.2%); assay type: functional; parameters: scale not given: the % may be the effect or the level left
Cucumis sativus [4] = experiment: Inhibition of fatty acid synthesis in Cucumis sativus (cucumber) using [14C]malonate assessed as inhibition of [14C]-labeled 20C fatty acid production at 30 uM after 3 hr by liquid scintillation counting; assay type: functional, organism-based
Hordeum vulgare [5] = experiment: Inhibition of fatty acid synthesis in Hordeum vulgare (barley) using [14C]acetate assessed as [14C]-labeled 20C fatty acid level at 30 uM after 3 hr by liquid scintillation counting (reference value: 4.7 +/- 1.6%); assay type: functional; parameters: scale not given: the % may be the effect or the level left
Hordeum vulgare [6] = experiment: Inhibition of fatty acid synthesis in Hordeum vulgare (barley) using [14C]malonate assessed as inhibition of [14C]-labeled 24C fatty acid production at 30 uM after 3 hr by liquid scintillation counting; assay type: functional, organism-based
Cucumis sativus [7] = experiment: Inhibition of fatty acid synthesis in Cucumis sativus (cucumber) using [14C]acetate assessed as [14C]-labeled 22C fatty acid level at 30 uM after 3 hr by liquid scintillation counting (reference value: 17.9 +/- 2.5%); assay type: functional; parameters: scale not given: the % may be the effect or the level left
Hordeum vulgare [8] = experiment: Inhibition of fatty acid synthesis in Hordeum vulgare (barley) using [14C]malonate assessed as inhibition of [14C]-labeled 16C fatty acid production at 30 uM after 3 hr by liquid scintillation counting; assay type: functional, organism-based
Hordeum vulgare [9] = experiment: Inhibition of fatty acid synthesis in Hordeum vulgare (barley) using [14C]malonate assessed as inhibition of [14C]-labeled 22C fatty acid production at 30 uM after 3 hr by liquid scintillation counting; assay type: functional, organism-based
Cucumis sativus [10] = experiment: Inhibition of fatty acid synthesis in Cucumis sativus (cucumber) using [14C]acetate assessed as [14C]-labeled 24C fatty acid level at 30 uM after 3 hr by liquid scintillation counting (reference value: 6.5 +/- 1%); assay type: functional; parameters: scale not given: the % may be the effect or the level left
Hordeum vulgare [11] = experiment: Inhibition of fatty acid synthesis in Hordeum vulgare (barley) using [14C]acetate assessed as [14C]-labeled 18C fatty acid level at 30 uM after 3 hr by liquid scintillation counting (reference value: 60.3 +/- 1.3%); assay type: functional; parameters: scale not given: the % may be the effect or the level left
Hordeum vulgare [12] = experiment: Inhibition of fatty acid synthesis in Hordeum vulgare (barley) using [14C]malonate assessed as inhibition of [14C]-labeled 18C fatty acid production at 30 uM after 3 hr by liquid scintillation counting; assay type: functional, organism-based
Cucumis sativus [13] = experiment: (§1) Inhibition of fatty acid synthesis in Cucumis sativus (cucumber) assessed as inhibition of [14C]acetate incoporation in total fatty acids at 30 uM measured as total disintegration per g of fresh weight after 3 hr by liquid scintillation counting (reference value: 6.4 +/- 1.2 dpm x 10^6 g'1 fresh wt); assay type: functional
Cucumis sativus [14] = experiment: Inhibition of fatty acid synthesis in Cucumis sativus (cucumber) using [14C]malonate assessed as inhibition of [14C]-labeled 22C fatty acid production at 30 uM after 3 hr by liquid scintillation counting; assay type: functional, organism-based
Hordeum vulgare [15] = experiment: as §1, with “Hordeum vulgare (barley)” for “Cucumis sativus (cucumber)”, “5.7” for “6.4”, “0.5 10^6” for “1.2”, “10'6” for “10^6”; assay type: functional
Cucumis sativus [16] = experiment: Inhibition of fatty acid synthesis in Cucumis sativus (cucumber) assessed as inhibition of [14C]malonate incoporation in total fatty acids at 30 uM measured after 3 hr by liquid scintillation counting; assay type: functional, organism-based
Hordeum vulgare [17] = experiment: Inhibition of fatty acid synthesis in Hordeum vulgare (barley) using [14C]acetate assessed as [14C]-labeled 16C fatty acid level at 30 uM after 3 hr by liquid scintillation counting (reference value: 29.5 +/- 1.3%); assay type: functional; parameters: scale not given: the % may be the effect or the level left
Hordeum vulgare [18] = experiment: Inhibition of fatty acid synthesis in Hordeum vulgare (barley) assessed as inhibition of [14C]malonate incoporation in total fatty acids at 30 uM measured after 3 hr by liquid scintillation counting; assay type: functional, organism-based
Cucumis sativus [19] = experiment: Inhibition of fatty acid synthesis in Cucumis sativus (cucumber) using [14C]acetate assessed as [14C]-labeled 16C fatty acid level at 30 uM after 3 hr by liquid scintillation counting (reference value: 29.2 +/- 3.5%); assay type: functional; parameters: scale not given: the % may be the effect or the level left
Hordeum vulgare [20] = experiment: Inhibition of fatty acid synthesis in Hordeum vulgare (barley) using [14C]malonate assessed as inhibition of [14C]-labeled 20C fatty acid production at 30 uM after 3 hr by liquid scintillation counting; assay type: functional, organism-based
Cucumis sativus [21] = experiment: Inhibition of fatty acid synthesis in Cucumis sativus (cucumber) using [14C]malonate assessed as inhibition of [14C]-labeled 24C fatty acid production at 30 uM after 3 hr by liquid scintillation counting; assay type: functional, organism-based
Cucumis sativus [22] = experiment: Inhibition of fatty acid synthesis in Cucumis sativus (cucumber) using [14C]acetate assessed as [14C]-labeled 18C fatty acid level at 30 uM after 3 hr by liquid scintillation counting (reference value: 41.2 +/- 1.1%); assay type: functional; parameters: scale not given: the % may be the effect or the level left
Cucumis sativus [23] = experiment: Inhibition of fatty acid synthesis in Cucumis sativus (cucumber) using [14C]acetate assessed as [14C]-labeled 20C fatty acid level at 30 uM after 3 hr by liquid scintillation counting (reference value: 5.1 +/- 0.7%); assay type: functional; parameters: scale not given: the % may be the effect or the level left

For `CCN(CC)C(=O)C(C)Oc1cccc2ccccc12` (stereo not drawn) [NAPROPAMIDE], the inhibition (Cucumis sativus [1]) was “inactive”, the inhibition (Cucumis sativus [2]) was “inactive” and the Activity (Hordeum vulgare [3]) was 6.9%. For the same compound, the inhibition (Cucumis sativus [4]) was “inactive”, the Activity (Hordeum vulgare [5]) was 7.6% and the inhibition (Hordeum vulgare [6]) was “inactive”. For the same compound, the Activity (Cucumis sativus [7]) was 19%, the inhibition (Hordeum vulgare [8]) was “inactive” and the inhibition (Hordeum vulgare [9]) was “inactive”. The Activity (Cucumis sativus [10]) was 5.9%, the Activity (Hordeum vulgare [11]) was 66.9% and the inhibition (Hordeum vulgare [12]) was “inactive”. For the same compound, the Activity (Cucumis sativus [13]) was 6.2 ×10⁶ dpm, the inhibition (Cucumis sativus [14]) was “inactive” and the Activity (Hordeum vulgare [15]) was 5.2 ×10⁶ dpm. The inhibition (Cucumis sativus [16]) was “inactive”, the Activity (Hordeum vulgare [17]) was 18.7% and the inhibition (Hordeum vulgare [18]) was “inactive”. For the same compound, the Activity (Cucumis sativus [19]) was 26.5%, the inhibition (Hordeum vulgare [20]) was “inactive” and the inhibition (Cucumis sativus [21]) was “inactive”. The Activity (Cucumis sativus [22]) was 43.1% and the Activity (Cucumis sativus [23]) was 5.5%.
